From patent publication US6943181B2, “Use of substituted gamma-lactone compounds as pharmaceutical preparations” (Grunenthal GmbH, priority 2001, dated 2005) come the findings set out here.

For the assay, the target named is T1, nitrogen monoxide synthase (NO synthase) (Rattus norvegicus, UniProt P29476).
T1 construct: the supernatant was then decanted off and frozen in portions; from tissue; host or cells: rat cerebellum (homogenate, 20,000 g supernatant)
Kind of assay: HTS-NOS assay (nitrogen monoxide synthase assay). Type of assay: biochemical. Conditions: compound at 10 μM; enzyme preparation from rat cerebella; [3H]-arginine substrate. The source says:
This assay makes it possible to determine the percentage inhibition of NO synthase by a compound of the general formula I used according to the invention by measuring NOS activity on exposure to the compound. NO synthase is here mixed under suitable conditions together with radioactively labelled arginine and the particular compound of the general formula I. After termination of the NO formation reaction at a predetermined time, the quantity of unconverted arginine is directly or indirectly determined. […] This assay may be carried out at follows: • (a) Incubation of the NO synthase with labelled arginine as the substrate in a reaction vessel, • (b) Separation of the labelled arginine from the labelled citrulline optionally arising as a product of the enzymatic reaction at a time at which the concentration of citrulline is rising, • (c) Measurement of the quantity of arginine separated in each case.
Separation is performed by means of a filter plate membrane.
Radioactive arginine is used as the substrate in this HTS-NOS assay. Depending on the type of microtitre plate (MTP), the assay volume may be selected in the range between 25 μl and 250 μl. Depending on the enzyme source used, cofactors and coenzymes are added. The batches are incubated in this microtitre plate (assay MTP) according to step (a) at room temperature and, depending on the enzyme activity used (units), lasts between 5 and 60 minutes. On completion of incubation (step (a)), the plate is placed in a cell harvester, which is equipped with an MTP which has a cation exchange membrane as a filter bottom (filter MTP). All the batches from the assay MTP are transferred into this filter MTP and suction filtered through a cation exchange filter plate, a paper filter loaded with phosphate groups. The filter MTP is then washed with buffer or water. This procedure binds the remaining substrate arginine onto the cation exchanger, while the enzymatically formed radioactive citrulline is quantitatively eluted. Once the filter MTP has been dried and scintillation liquid added, the bound arginine can be counted in the scintillation counter. Low radioactivity indicates an uninhibited NOS reaction. An inhibited enzyme reaction means that the radioactive arginine has not been converted. This means that there is a high level of radioactivity on the filter.
• Arginine, L-[2,3,4-^3H]-monohydrochloride; item no. […] The pH value of the buffer was adjusted to 7.4 at 25° C. • Washing medium: H2O Enzyme Preparation
Rat cerebella were used as the starting tissue. The animals were stunned and killed, the brain tissue, the cerebellum, was dissected out, 1 ml of enzyme preparation buffer (4° C.) was added per cerebellum, and the tissue was disrupted for 1 min at 6000 rpm in a Polytron homogeniser. The mixture was then centrifuged at 4° C. for 15 min at 20,000 g, and the supernatant was then decanted off and frozen in portions at −80° C. (discarding the precipitate).
96-Well MTPs with a well capacity of ≦250 μl were used Pipetting sequence: see table 1:
Once the pipetting operation was complete, a lid was laid on top of this MTP (assay MTP). Incubation at 25° C. (room temperature (RT)) for 5-60 min, depending on the quantity and activity of the enzyme used.
The contents of the assay MTP were then transferred with the assistance of a 96 well cell harvester into a 96 well cation exchange MTP (filter MTP) and suction filtered. A single washing with […] of H2O (from a trough) was then performed.
The plate was then dried for 1 h at 60° C. in a drying cabinet. The bottom of the filter MTP was then carefully sealed from beneath with a “back seal”. 35 μl of scintillating material were then pipetted into each well. The top of the plate was also sealed with a “top seal”. After 1 hour's waiting time, the plate was assessed on the β-counter.
For the compound `CC(C)C1(c2ccccc2)CC(Nc2ncccn2)C(=O)O1` (stereo not drawn) [Example 45, 5-Isopropyl-5-phenyl-3-(pyrimidin-2-ylamino)-dihydro-furan-2-one], testing at 10 µM gave an inhibition of 58%.

Turning to `CCOC(=O)c1c[nH]nc1NC1CC(C)(c2ccc(I)cc2)OC1=O` (stereo not drawn) [Example 46, 3-[5-(4-Iodo-phenyl)-5-methyl-2-oxo-tetrahydro-furan-3-ylamino]-1H-pyrazole-4-carboxylic acid ethyl ester], the inhibition (in general, the share of the control response that was lost under treatment) at 10 µM stood at 44%.

`CC1(c2ccc(Br)cc2)CC(Nc2ccc(Br)cn2)C(=O)O1` (stereo not drawn) [Example 47, 5-(4-Bromo-phenyl)-3-(5-bromo-pyridin-2-ylamino)-5-methyl-dihydro-furan-2-one] returned an inhibition at 10 µM of 54%.

As for `Cc1cnc(NC2CC(C)(c3cccc4ccccc34)OC2=O)c(Br)c1` (stereo not drawn) [Example 48, 3-(3-Bromo-5-methyl-pyridin-2-ylamino)-5-methyl-5-naphthalen-l-yl-dihydro-furan-2-one], the “NOS (% inhibition)” value was 45%.

Consider `CCCc1cccc(NC2CC(C)(c3cccc4ccccc34)OC2=O)n1` (stereo not drawn) [Example 49, 5-Methyl-5-naphthalen-l-yl-3-(6-propyl-pyridin-2-ylamino)-dihydro-furan-2-one], for which the “NOS (% inhibition)” value is recorded as 53%.

As for `CCCc1cccc(NC2CC(C)(c3cccc(Cl)c3)OC2=O)n1` (stereo not drawn) [Example 50, 5-(3-Chloro-phenyl)-5-methyl-3-(6-propyl-pyridin-2-ylamino)-dihydro-furan-2-one], the inhibition at 10 µM worked out at 61%.

For `Cc1ccnc(NC2CC(C)(c3cccc(Cl)c3)OC2=O)c1[N+](=O)[O-]` (stereo not drawn) [Example 51, 5-(3-Chloro-phenyl)-5-methyl-3-(4-methyl-3-nitro-pyridin-2-ylamino)-dihydro-furan-2-one], the inhibition at 10 µM amounted to 50%.

In turn, `Cc1ccnc(NC2CC(C)(c3ccc(Br)cc3)OC2=O)c1[N+](=O)[O-]` (stereo not drawn) [Example 52, 5-(4-Bromo-phenyl)-5-methyl-3-(4-methyl-3-nitro-pyridin-2-ylamino)-dihydro-furan-2-one] had an inhibition at 10 µM of 43%.

`Cc1nc(NC2CC(C)(c3ccc(I)cc3)OC2=O)ccc1Br` (stereo not drawn) [Example 54, 3-(5-Bromo-6-methyl-pyridin-2-ylamino)-5-(4-iodo-phenyl)-5-methyl-dihydro-furan-2-one] came in with an inhibition at 10 µM of 70%.

Compound `CC1(c2ccc(I)cc2)CC(Nc2ncccc2OCc2ccccc2)C(=O)O1` (stereo not drawn) [Example 55, 3-(3-Benzyloxy-pyridin-2-ylamino)-5-(4-iodo-phenyl)-5-methyl-dihydro-furan-2-one] registered an inhibition at 10 µM of 44%.

As for `CC1(c2ccc(Br)cc2)CC(Nc2ncccc2OCc2ccccc2)C(=O)O1` (stereo not drawn) [Example 56, 3-(3-Benzyloxy-pyridin-2-ylamino)-5-(4-bromo-phenyl)-5-methyl-dihydro-furan-2-one], the inhibition at 10 µM worked out at 59%.

Take `Cc1cc(C)nc(NC2CC(C)(c3ccc(I)cc3)OC2=O)c1` (stereo not drawn) [Example 57, 3-(4,6-Dimethyl-pyridin-2-ylamino)-5-(4-iodo-phenyl)-5-methyl-dihydro-furan-2-one]: the inhibition at 10 µM came to 72%.

For `Cc1cc(C)nc(NC2CC(C)(c3cccc(Cl)c3)OC2=O)c1` (stereo not drawn) [Example 58, 5-(3-Chloro-phenyl)-3-(4,6-dimethyl-pyridin-2-ylamino)-5-methyl-dihydro-furan-2-one], the inhibition at 10 µM turned out to be 73%.

Compound `Cc1cccnc1NC1CC(C)(c2ccc(Br)cc2)OC1=O` (stereo not drawn) [Example 59, 5-(4-Bromo-phenyl)-5-methyl-3-(3-methyl-pyridin-2-ylamino)-dihydro-furan-2-one] gave an inhibition at 10 µM of 45%.

Turning to `Cc1ccnc(NC2CC(C)(c3ccc(Br)cc3)OC2=O)c1` (stereo not drawn) [Example 60, 5-(4-Bromo-phenyl)-5-methyl-3-(4-methyl-pyridin-2-ylamino)-dihydro-furan-2-one], testing at 10 µM gave an inhibition of 59%.

With `CCCc1nc(NC2CC(C)(c3cc(OC)cc(OC)c3)OC2=O)ncc1C(=O)OCC` (stereo not drawn) [Example 61, 2-[5-(3,5-Dimethoxy-phenyl)-5-methyl-2-oxo-tetrahydro-furan-3-ylamino]-4-propyl-pyrimidine-5-carboxylic acid ethyl ester], at 10 µM the inhibition was 40%.

For `COc1cc(OC)cc(C2(C)CC(Nc3n[nH]cc3Br)C(=O)O2)c1` (stereo not drawn) [Example 62, 3-(4-Bromo-1H-pyrazol-3-ylamino)-5-(3,5-dimethoxy-phenyl)-5-methyl-dihydro-furan-2-one], the inhibition at 10 µM came to 40%.

As for `COc1ccccc1C1(C)CC(Nc2n[nH]cc2Br)C(=O)O1` (stereo not drawn) [Example 63, 3-(4-Bromo-1H-pyrazol-3-ylamino)-5-(2-methoxy-phenyl)-5-methyl-dihydro-furan-2-one], the inhibition at 10 µM is 51%.

Consider `COc1ccc(OC)c(C2(C)CC(Nc3n[nH]cc3C#N)C(=O)O2)c1` (stereo not drawn) [Example 64, 3-[5-(2,5-Dimethoxy-phenyl)-5-methyl-2-oxo-tetrahydro-furan-3-ylamino]-1H-pyrazole-4-carbonitrile], for which the inhibition at 10 µM is 42%.

`COc1ccc(OC)c(C2(C)CC(Nc3n[nH]c(SC)c3C#N)C(=O)O2)c1` (stereo not drawn) [Example 65, 3-[5-(2,5-Dimethoxy-phenyl)-5-methyl-2-oxo-tetrahydro-furan-3-ylamino]-5-methylsulfanyl-1H-pyrazole-4-carbonitrile] came in with an inhibition at 10 µM of 42%.

The compound `COc1ccc(OC)c(C2(C)CC(Nc3ccccn3)C(=O)O2)c1` (stereo not drawn) [Example 66, 5-(2,5-Dimethoxy-phenyl)-5-methyl-3-(pyridin-2-ylamino)-dihydro-furan-2-one] had an inhibition at 10 µM of 52%.

`COc1ccccc1C1(C)CC(Nc2ccccn2)C(=O)O1` (stereo not drawn) [Example 67, 5-(2-Methoxy-phenyl)-5-methyl-3-(pyridin-2-ylamino)-dihydro-furan-2-one] yielded an inhibition at 10 µM of 45%.

In the case of `COc1cc(OC)cc(C2(C)CC(Nc3ncc(C(F)(F)F)cc3Cl)C(=O)O2)c1` (stereo not drawn) [Example 68, 3-(3-Chloro-5-trifluoromethyl-pyridin-2-ylamino)-5-(3,5-dimethoxy-phenyl)-5-methyl-dihydro-furan-2-one], 10 µM produced 60% inhibition.

In turn, `COc1ccc(OC)c(C2(C)CC(Nc3ncc(C(F)(F)F)cc3Cl)C(=O)O2)c1` (stereo not drawn) [Example 69, 3-(3-Chloro-5-trifluoromethyl-pyridin-2-ylamino)-5-(2,5-dimethoxy-phenyl)-5-methyl-dihydro-furan-2-one] displayed an inhibition at 10 µM of 58%.

For `COc1ccccc1C1(C)CC(Nc2ncc(Cl)cc2Cl)C(=O)O1` (stereo not drawn) [Example 70, 3-(3,5-Dichloro-pyridin-2-ylamino)-5-(2-methoxy-phenyl)-5-methyl-dihydro-furan-2-one], at 10 µM the inhibition was 51%.

The compound `COc1ccc(C2(C)CC(Nc3ncc(C(F)(F)F)cc3Cl)C(=O)O2)c(OC)c1` (stereo not drawn) [Example 71, 3-(3-Chloro-5-trifluoromethyl-pyridin-2-ylamino)-5-(2,4-dimethoxy-phenyl)-5-methyl-dihydro-furan-2-one] displayed an inhibition at 10 µM of 54%.

As for `COc1cccc(C2(C)CC(Nc3cc(C)cc(C)n3)C(=O)O2)c1` (stereo not drawn) [Example 72, 3-(4,6-Dimethyl-pyridin-2-ylamino)-5-(3-methoxy-phenyl)-5-methyl-dihydro-furan-2-one], the inhibition at 10 µM was found to be 40%.

As to `COc1ccc(C2(C)CC(Nc3cc(C)cc(C)n3)C(=O)O2)cc1` (stereo not drawn) [Example 73, 3-(4,6-Dimethyl-pyridin-2-ylamino)-5-(4-methoxy-phenyl)-5-methyl-dihydro-furan-2-one], 10 µM produced 56% inhibition.

Consider `COc1ccc(C2(C)CC(Nc3cc(C)cc(C)n3)C(=O)O2)cc1OC` (stereo not drawn) [Example 74, 5-(3,4-Dimethoxy-phenyl)-3-(4,6-dimethyl-pyridin-2-ylamino)-5-methyl-dihydro-furan-2-one], for which testing at 10 µM gave an inhibition of 51%.

The compound `COc1ccc(C2(C)CC(Nc3cc(C)ccn3)C(=O)O2)cc1` (stereo not drawn) [Example 75, 5-(4-Methoxy-phenyl)-5-methyl-3-(4-methyl-pyridin-2-ylamino)-dihydro-furan-2-one] displayed an inhibition at 10 µM of 48%.
